We go through 16 molecules from publication PMC2765246 (Journal of medicinal chemistry, 2008).

The target in assay [1] is T1, P. vivax FPPS (farnesyl diphosphate synthase) (Plasmodium vivax, UniProt A5K4U6).
T1 sequence (A5K4U6 1-375): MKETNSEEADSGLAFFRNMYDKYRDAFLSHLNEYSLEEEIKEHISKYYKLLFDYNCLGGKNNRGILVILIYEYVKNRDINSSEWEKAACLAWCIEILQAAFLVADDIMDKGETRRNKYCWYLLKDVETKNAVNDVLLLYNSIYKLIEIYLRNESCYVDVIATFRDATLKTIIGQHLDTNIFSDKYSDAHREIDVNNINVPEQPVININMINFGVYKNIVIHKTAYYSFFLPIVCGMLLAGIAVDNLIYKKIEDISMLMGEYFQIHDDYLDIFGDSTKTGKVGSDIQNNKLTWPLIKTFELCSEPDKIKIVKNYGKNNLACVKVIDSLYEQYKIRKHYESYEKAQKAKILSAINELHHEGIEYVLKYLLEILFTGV
Put plainly: P. vivax FPPS inhibition, continuous spectrophotometric phosphate release assay. The conditions noted are these: pIC50 (enzyme). In kind it is biochemical.

The next assay has as its system Plasmodium falciparum. As to conditions: P. falciparum growth inhibition, cited from earlier work; for IC50: read-out: IC50 (cell).
[2] abbreviates: FPPS from Plasmodium vivax, pIC50 = −log10 IC50.

`CCCCCCCCCC(O)(P(=O)(O)O)P(=O)(O)O` [Compound 4]: in assay [1] (setting [2]), the 50% inhibitory concentration (IC50) was 794 nM. Consider `O=P(O)(O)C(Nc1ccc(Cl)cn1)P(=O)(O)O` [Compound 8], for which, in the assay on Plasmodium falciparum, the “pIC50 (cell)” value is on record as 5.0 and the IC50 was 11000 nM. `O=P(O)(O)C(O)(Cc1cccc(Br)c1)P(=O)(O)O` [Compound 11] gave an IC50 in assay [1] (setting [2]) of 794 nM.

In assay [1] (setting [2]), `O=P(O)(O)C(Nc1nccs1)P(=O)(O)O` [Compound 19] had an IC50 of 794 nM. `CN(CCCCc1ccccc1)CCC(O)(P(=O)(O)O)P(=O)(O)O` [Compound 3]: in the assay on Plasmodium falciparum, the “pIC50 (cell)” value is reported as 5.5 and the IC50 was 2900 nM. `CCCCCCC(O)(P(=O)(O)O)P(=O)(O)O` [Compound 1]: in the assay on Plasmodium falciparum, the “pIC50 (cell)” value is listed as 5.9. `O=P(O)(O)C(O)(Cc1cccc(C(F)(F)F)c1)P(=O)(O)O` [Compound 5] showed an IC50 in assay [1] (setting [2]) of 631 nM. In addition, the “pIC50 (cell)” value with Plasmodium falciparum is recorded as 5.4. Turning to `O=P(O)(O)C(O)(CSc1ccncc1)P(=O)(O)O` [Compound 22], in the assay on Plasmodium falciparum, the “pIC50 (cell)” value is 3.8. `O=P(O)(O)C(O)(Cc1ccccc1)P(=O)(O)O` [Compound 9]: the “pIC50 (cell)” value with Plasmodium falciparum is given as 5.0. In assay [1], `O=P(O)(O)C(O)(Cc1ccccn1)P(=O)(O)O` [Compound 26] showed an IC50 of 1000 nM. Besides, in the assay with Plasmodium falciparum, the “pIC50 (cell)” value was 3.7. On to `O=P(O)(O)C(O)(Cc1cccc(Cl)c1)P(=O)(O)O` [Compound 6], for which, in the assay on Plasmodium falciparum, the “pIC50 (cell)” value is listed as 5.4.

For the molecule `O=P(O)(O)C(O)(Cc1cccc(F)c1)P(=O)(O)O` [Compound 7], the “pIC50 (cell)” value in the assay with Plasmodium falciparum was 5.2. Molecule `CN(Cc1ccccc1)C(P(=O)(O)O)P(=O)(O)O` [Compound 24] gave an IC50 in assay [1] (setting [2]) of 794 nM. Further, the “pIC50 (cell)” value in the assay on Plasmodium falciparum is 3.7. Take `Cc1ccc(C)c(COc2ccc(C)nc2NC(P(=O)(O)O)P(=O)(O)O)c1` [Compound 25]: in the assay on Plasmodium falciparum, the “pIC50 (cell)” value is 3.7. In the case of `CCCCCCCCCCCCCC(O)(P(=O)(O)O)P(=O)(O)O` [Compound 2], in the assay with Plasmodium falciparum, the “pIC50 (cell)” value is 5.7. `CN(CCCc1ccccc1)CCC(O)(P(=O)(O)O)P(=O)(O)O` [Compound 13]: in the assay on Plasmodium falciparum, the “pIC50 (cell)” value is 4.6 and the IC50 was 23000 nM.

For orientation: IC50 means the point on the concentration scale where inhibition reaches its midpoint.
